Results on twelve molecules are retold here after patent publication US20230382925A1, “MODULATORS OF CYSTIC FIBROSIS TRANSMEMBRANE CONDUCTANCE REGULATOR” (VERTEX PHARMACEUTICALS INCORPORATED, priority 2020, published 2023).

For data set [1] the following is noted: amide bond, 13-membered ring, DMF.
Data set [2] has as its target T1, CFTR (Homo sapiens, UniProt P13569). In words: Membrane Potential Dye, Enteroid Assay A. The format is cell-based. As to conditions: for pEC50: read-out: Ent. A EC50. The method in brief:
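Primary human intestinal enteroid cells exposed to compound for 18–24 hours at 37 °C, then loaded 25 min with methyl oxonol membrane potential dye plus CaCC inhibitors. Chloride transport triggered in chloride-free buffer with 10 μM forskolin, 100 μM IBMX and 300 nM Compound III, fluorescence read 15 min; % Activity relative to a triple-combination corrector/potentiator control.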

Data set [3] addresses T1, CFTR. Nature of the data set: Membrane Potential Dye, Enteroid Assay B. The format is cell-based. An outline of the steps:
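Activity given as % of a triple-combination reference (1 μM and 3 μM correctors, 300 nM acute potentiator). Enteroids were preincubated 18-24 h with compound; chloride efflux then measured 15 min by methyl oxonol fluorescence after forskolin/IBMX/Compound III stimulation in chloride-free buffer containing CaCCinh-A01 and Chicago Sky Blue.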

Where [4] appears, read: Table 10, read-out: Ent. B EC50.

Each structure is given as a SMILES string. pEC50: −log10 of the molar value. Where two headings read alike, the source gives them in different places.

The term pEC50 denotes −log10 of the EC50, conventionally taken in molar units.

T1 sequence (P13569 with tags, fused parts or gaps DEL508-508): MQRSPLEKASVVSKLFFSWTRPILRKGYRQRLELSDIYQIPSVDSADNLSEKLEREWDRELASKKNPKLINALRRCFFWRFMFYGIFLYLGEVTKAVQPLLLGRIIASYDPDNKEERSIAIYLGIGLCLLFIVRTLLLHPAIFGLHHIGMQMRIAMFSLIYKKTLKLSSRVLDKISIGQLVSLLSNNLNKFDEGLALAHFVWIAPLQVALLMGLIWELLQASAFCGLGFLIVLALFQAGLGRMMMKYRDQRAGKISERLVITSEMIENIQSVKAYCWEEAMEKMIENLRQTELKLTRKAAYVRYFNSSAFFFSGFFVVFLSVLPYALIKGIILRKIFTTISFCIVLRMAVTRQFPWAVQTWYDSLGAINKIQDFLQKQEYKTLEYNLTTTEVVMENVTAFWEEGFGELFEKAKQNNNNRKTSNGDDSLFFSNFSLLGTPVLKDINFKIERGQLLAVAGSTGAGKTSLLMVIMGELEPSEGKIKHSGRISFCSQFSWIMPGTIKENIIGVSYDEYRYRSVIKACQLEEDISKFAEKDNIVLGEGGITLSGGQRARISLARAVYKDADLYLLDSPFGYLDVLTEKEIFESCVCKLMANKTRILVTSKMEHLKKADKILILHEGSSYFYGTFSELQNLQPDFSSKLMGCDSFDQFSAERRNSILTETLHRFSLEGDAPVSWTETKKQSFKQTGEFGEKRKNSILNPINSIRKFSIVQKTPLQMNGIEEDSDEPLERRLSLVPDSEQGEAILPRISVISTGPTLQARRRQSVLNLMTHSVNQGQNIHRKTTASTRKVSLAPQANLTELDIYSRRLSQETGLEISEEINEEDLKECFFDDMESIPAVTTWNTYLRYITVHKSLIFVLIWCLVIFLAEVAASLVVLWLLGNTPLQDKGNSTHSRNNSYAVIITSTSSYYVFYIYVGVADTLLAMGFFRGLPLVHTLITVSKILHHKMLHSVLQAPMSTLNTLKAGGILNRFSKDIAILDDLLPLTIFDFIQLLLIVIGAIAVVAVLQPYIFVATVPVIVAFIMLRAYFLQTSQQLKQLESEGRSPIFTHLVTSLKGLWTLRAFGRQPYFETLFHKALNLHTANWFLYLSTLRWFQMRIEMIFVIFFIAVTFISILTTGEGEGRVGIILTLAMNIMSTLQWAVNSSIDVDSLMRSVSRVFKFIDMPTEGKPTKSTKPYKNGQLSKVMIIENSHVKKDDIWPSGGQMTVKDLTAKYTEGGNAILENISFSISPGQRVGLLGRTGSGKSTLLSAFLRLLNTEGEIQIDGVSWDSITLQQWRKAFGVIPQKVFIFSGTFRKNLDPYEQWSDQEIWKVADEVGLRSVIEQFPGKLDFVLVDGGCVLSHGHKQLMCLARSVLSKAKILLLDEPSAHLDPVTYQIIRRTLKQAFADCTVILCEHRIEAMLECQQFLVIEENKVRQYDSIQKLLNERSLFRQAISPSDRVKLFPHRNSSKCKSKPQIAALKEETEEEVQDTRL

In data set [1] (from Cc1cccc(C)c1-c1cc(O[C@H](C2CC2)[C@@H](CC2CCCCC2)NC2CC3(CC3)C2)nc(NS(=O)(=O)c2cccc(C(=O)O)c2)n1, COMU/TEA, 10.8 mM, 25.0 °C, 1.0 h), `Cc1cccc(C)c1-c1cc2nc(n1)NS(=O)(=O)c1cccc(c1)C(=O)N(C1CC3(CC3)C1)[C@H](CC1CCCCC1)[C@@H](C1CC1)O2` [Compound 1, (10R,11R)-11-(Cyclohexylmethyl)-10-cyclopropyl-6-(2,6-dimethylphenyl)-2,2-dioxo-12-spiro[2.3]hexan-5-yl-9-oxa-2λ^6-thia-3,5,12,19-tetrazatricyclo[12.3.1.14,8]nonadeca-1(18),4(19),5,7,14,16-hexaen-13-one] showed a ring closure, yield after HPLC of 31%. Further, at CFTR [2], the “Ent. A Max Activity (%)” value was “+++ (+++ is >60%)” and the pEC50 is more than 6.00.

The molecule `Cc1cccc(C)c1-c1cc2nc(n1)NS(=O)(=O)c1cccc(c1)C(=O)N(C1CC3(CC3)C1)[C@H](CCC(C)C)CO2` [Compound 3, (11R)-6-(2,6-Dimethylphenyl)-11-isopentyl-2,2-dioxo-12-spiro[2.3]hexan-5-yl-9-oxa-2λ^6-thia-3,5,12,19-tetrazatricyclo[12.3.1.14,8]nonadeca-1(18),4(19),5,7,14,16-hexaen-13-one] had a ring closure, yield after HPLC in data set [1] (from Cc1cccc(C)c1-c1cc(OC[C@@H](CCC(C)C)NC2CC3(CC3)C2)nc(NS(=O)(=O)c2cccc(C(=O)O)c2)n1, HATU/DIEA, 25.0 °C, 3.0 h, 2 steps) of 8%. Also, at CFTR [2], the “Ent. A Max Activity (%)” value is “++ (++ is 30-60%)” and the pEC50 is more than 6.00.

In data set [1] (from Cc1cccc(C)c1-c1cc(OC[C@@H](CC(C)C)NC2CC(C)(C)C2)nc(NS(=O)(=O)c2cccc(C(=O)O)c2)n1, HATU/DIEA, 18.9 mM, 25.0 °C, 2.0 h), `Cc1cccc(C)c1-c1cc2nc(n1)NS(=O)(=O)c1cccc(c1)C(=O)N(C1CC(C)(C)C1)[C@H](CC(C)C)CO2` [Compound 28, (11R)-12-(3,3-Dimethylcyclobutyl)-6-(2,6-dimethylphenyl)-11-isobutyl-2,2-dioxo-9-oxa-2λ^6-thia-3,5,12,19-tetrazatricyclo[12.3.1.14,8]nonadeca-1(18),4(19),5,7,14,16-hexaen-13-one] had a ring closure, yield after HPLC of 60%. Further, at CFTR [2], the “Ent. A Max Activity (%)” value is reported as “+++ (+++ is >60%)” and the pEC50 is more than 6.00.

As to `Cc1cccc(C)c1-c1cc2nc(n1)NS(=O)(=O)c1cccc(c1)C(=O)N(C1CC3(CCOCC3)C1)[C@H](CC(C)C)CO2` [Compound 31, (11R)-6-(2,6-Dimethylphenyl)-11-isobutyl-12-(7-oxaspiro[3.5]nonan-2-yl)-2,2-dioxo-9-oxa-2λ^6-thia-3,5,12,19-tetrazatricyclo[12.3.1.14,8]nonadeca-1(18),4(19),5,7,14,16-hexaen-13-one], the ring closure, yield after HPLC in data set [1] (from Cc1cccc(C)c1-c1cc(OC[C@@H](CC(C)C)NC2CC3(CCOCC3)C2)nc(NS(=O)(=O)c2cccc(C(=O)O)c2)n1, HATU/DIEA, 25.0 °C, 2.0 h, 2 steps) worked out at 28%. Further, at CFTR [2], the “Ent. A Max Activity (%)” value is reported as “+++ (+++ is >60%)” and the pEC50 is more than 6.00.

Turning to `Cc1cccc(C)c1-c1cc2nc(n1)NS(=O)(=O)c1cccc(c1)C(=O)N(C1CC(OC(C)C)C1)[C@H](CC(C)C)CO2` (stereo partly drawn) [Compound 47, (11R)-6-(2,6-Dimethylphenyl)-11-isobutyl-12-(3-isopropoxycyclobutyl)-2,2-dioxo-9-oxa-2λ^6-thia-3,5,12,19-tetrazatricyclo[12.3.1.14,8]nonadeca-1(18),4(19),5,7,14,16-hexaen-13-one], in data set [1] (from Cc1cccc(C)c1-c1cc(OC[C@@H](CC(C)C)NC2CC(OC(C)C)C2)nc(NS(=O)(=O)c2cccc(C(=O)O)c2)n1, HATU/Et3N, 59.2 mM, 2.0 h), the ring closure, yield after HPLC is 53%. The “Ent. B Max Activity (%)” value at CFTR [3] (Table 9) is recorded as “+++ (+++ is >60%)”. Besides, on CFTR [3] (Table 9, read-out: Ent. B EC50), the pEC50 is more than 6.00.

Consider `Cc1cccc(C)c1-c1cc2nc(n1)NS(=O)(=O)c1cncc(n1)C(=O)N(C1CC3(CC3)C1)[C@H](CC(C)C)CO2` [Compound 62, (11R)-6-(2,6-Dimethylphenyl)-11-isobutyl-2,2-dioxo-12-spiro[2.3]hexan-5-yl-9-oxa-2λ^6-thia-3,5,12,16,18,19-hexazatricyclo[12.3.1.14,8]nonadeca-1(18),4(19),5,7,14,16-hexaen-13-one], for which the ring closure, yield after HPLC in data set [1] (from Cc1cccc(C)c1-c1cc(OC[C@@H](CC(C)C)NC2CC3(CC3)C2)nc(NS(=O)(=O)c2cncc(C(=O)O)n2)n1, HATU/DIEA, 15.2 mM, 12.0 h) amounted to 65%. The “Ent. B Max Activity (%)” value on CFTR [3] is reported as “+++ (+++ is >60%)”. The pEC50 on CFTR [3] (read-out: Ent. B EC50) was more than 6.00.

As to `Cc1cccc(C)c1-c1cc2nc(n1)NS(=O)(=O)c1cc(n(C)n1)C(=O)N(C1CC3(CC3)C1)[C@H](CC(C)C)CO2` [Compound 74, (10R)-15-(2,6-Dimethylphenyl)-10-isobutyl-6-methyl-3,3-dioxo-9-spiro[2.3]hexan-5-yl-12-oxa-3λ^6-thia-2,5,6,9,16,17-hexazatricyclo[11.3.1.14,7]octadeca-1(17),4,7(18),13,15-pentaen-8-one], the ring closure, yield after HPLC in data set [1] (from Cc1cccc(C)c1-c1cc(OC[C@@H](CC(C)C)NC2CC3(CC3)C2)nc(NS(=O)(=O)c2cc(C(=O)O)n(C)n2)n1, HATU/DIPEA, 4.9 mM, 6.0 h, 2 steps) was 10%. For the same molecule, the “Ent. B Max Activity (%)” value at CFTR [3] (Table 9) is recorded as “+++ (+++ is >60%)”. Further, the pEC50 at CFTR [3] (Table 9, read-out: Ent. B EC50) is more than 6.00.

The molecule `COCCn1cc(N2C(=O)c3cccc(c3)S(=O)(=O)Nc3nc(cc(-c4c(C)cccc4C)n3)OC[C@H]2CC(C)C)cn1` [Compound 98, (11R)-6-(2,6-Dimethylphenyl)-11-isobutyl-12-[1-(2-methoxyethyl)pyrazol-4-yl]-2,2-dioxo-9-oxa-2λ^6-thia-3,5,12,19-tetrazatricyclo[12.3.1.14,8]nonadeca-1(18),4(19),5,7,14,16-hexaen-13-one] registered a ring closure, yield after HPLC in data set [1] (from COCCn1cc(N[C@@H](COc2cc(-c3c(C)cccc3C)nc(NS(=O)(=O)c3cccc(C(=O)O)c3)n2)CC(C)C)cn1, CDMT/NMM, 48.0 h, 2 steps) of 9%. Moreover, at CFTR [3] (Table 10), the “Ent. B Max Activity (%)” value is “+++ (+++ is >60%)”. Also, the pEC50 on CFTR [3] (setting [4]) is more than 6.00.

In data set [1] (from Cc1cccc(C)c1-c1cc(O[C@H](C)CNC2CC3(CC3)C2)nc(NS(=O)(=O)c2cccc(C(=O)O)c2)n1, HATU/DIEA, 7.3 mM, 1.0 h, 2 steps), `Cc1cccc(C)c1-c1cc2nc(n1)NS(=O)(=O)c1cccc(c1)C(=O)N(C1CC3(CC3)C1)C[C@@H](C)O2` [Compound 180, (10R)-6-(2,6-Dimethylphenyl)-10-methyl-2,2-dioxo-12-spiro[2.3]hexan-5-yl-9-oxa-2λ^6-thia-3,5,12,19-tetrazatricyclo[12.3.1.14,8]nonadeca-1(18),4(19),5,7,14,16-hexaen-13-one] yielded a ring closure, yield after HPLC of 6%. Moreover, the “Ent. B Max Activity (%)” value at CFTR [3] is recorded as “+++ (+++ is >60%)”. Moreover, the pEC50 on CFTR [3] (read-out: Ent. B EC50) is more than 6.00.

As for `Cc1cccc(C)c1-c1cc2nc(n1)NS(=O)(=O)c1cccc(c1)C(=O)N(C1Cc3ccccc3C1)[C@H](CC(C)(C)C)CO2` [Compound 183, (11R)-6-(2,6-Dimethylphenyl)-11-(2,2-dimethylpropyl)-12-indan-2-yl-2,2-dioxo-9-oxa-2λ^6-thia-3,5,12,19-tetrazatricyclo[12.3.1.14,8]nonadeca-1(18),4(19),5,7,14,16-hexaen-13-one], the ring closure, yield after HPLC in data set [1] (from Cc1cccc(C)c1-c1cc(OC[C@@H](CC(C)(C)C)NC2Cc3ccccc3C2)nc(NS(=O)(=O)c2cccc(C(=O)O)c2)n1, CDMT/NMM, 25.7 mM, 24.0 h) was 13%. Moreover, at CFTR [3] (Table 10), the “Ent. B Max Activity (%)” value is “+++ (+++ is >60%)”. The pEC50 on CFTR [3] (setting [4]) was more than 6.00.

`Cc1cccc(C)c1-c1cc2nc(n1)NS(=O)(=O)c1cccc(c1)C(=O)N(c1cnn(C(C)(C)C)c1)[C@H](CC(C)(C)C)CO2` [Compound 184, (11R)-12-(1-tert-Butylpyrazol-4-yl)-6-(2,6-dimethylphenyl)-11-(2,2-dimethylpropyl)-2,2-dioxo-9-oxa-2λ^6-thia-3,5,12,19-tetrazatricyclo[12.3.1.14,8]nonadeca-1(18),4(19),5,7,14,16-hexaen-13-one] gave a ring closure, yield after HPLC in data set [1] (from Cc1cccc(C)c1-c1cc(OC[C@@H](CC(C)(C)C)Nc2cnn(C(C)(C)C)c2)nc(NS(=O)(=O)c2cccc(C(=O)O)c2)n1, CDMT/NMM, 24.9 mM, 48.0 h, 2 steps) of 7%. On CFTR [3] (Table 10), the “Ent. B Max Activity (%)” value is “+++ (+++ is >60%)”. The pEC50 at CFTR [3] (setting [4]) was more than 6.00.

`Cc1cccc(C)c1-c1cc2cc(n1)NS(=O)(=O)c1cccc(n1)C(=O)N(C1CC3(CC3)C1)[C@H](CC(C)C)CO2` [Compound 197, (11R)-6-(2,6-Dimethylphenyl)-11-isobutyl-2,2-dioxo-12-spiro[2.3]hexan-5-yl-9-oxa-2λ^6-thia-3,5,12,18-tetrazatricyclo[12.3.1.14,8]nonadeca-1(18),4(19),5,7,14,16-hexaen-13-one] gave a ring closure, yield after HPLC in data set [1] (from Cc1cccc(C)c1-c1cc(OC[C@@H](CC(C)C)NC2CC3(CC3)C2)cc(NS(=O)(=O)c2cccc(C(=O)O)n2)n1, HATU/DIEA, 27.1 mM, 2.0 h) of 59%. At CFTR [3], the “Ent. B Max Activity (%)” value was “+++ (+++ is >60%)”. In addition, on CFTR [3] (read-out: Ent. B EC50), the pEC50 is more than 6.00.
